Patent US9855249B2, “Isoxazole compounds and methods for the treatment of cystic fibrosis” (FLATLEY DISCOVERY LAB, LLC, priority 2014, dated 2018)

Test system: CFTR mediated chloride current in Primary CF airway epithelial cells
Assay: Equivalent current assay in primary CF airway epithelial cells (NAUC)
Format: cell-based
Settings: 24 h treatment, stimulated with forskolin and VX770, normalized to positive control 3 μM VX809
Experimental: Primary CF airway epithelial cells were obtained from the UNC Cystic Fibrosis Tissue Procurement and Cell Culture Core. The cells are grown at 37° C. in a Heracell 150i incubator using growth media (BEGM, Fischer). Cells were then transferred to differentiation media (ALI, UNC) for a minimum of 4 weeks on coated Costar snapwells. Two days before the Ussing assay the mucus on the apical surface of the cells was aspirated after incubating with 200 μL of differentiation Media for at least thirty (30) minutes. One day before the Ussing assay test compounds were added to the basolateral surface of the cells at various test concentrations dissolved in DMSO. Duplicate wells were prepared giving a n=3 or n=4 protocol.
Cells were treated for 24 hours with various combinations and concentrations of the test articles, reference standard (3 μM VX809, positive control). Compounds stock solutions were prepared in DMSO and diluted 1/1000 into ALI media to their final assay concentration. Cells were treated with combination solutions (2 mL of each dilution) and incubated at 37° C. for 24 h.
For the equivalent current assay, cells on four Transwell (24-well) plates were treated. Each Transwell plate was filled with 200 μl of HBS on the apical surface and 2 ml on the basolateral surface. Plates were placed horizontally in a heated mount at 37° C., and equilibrated for several minutes. Resting current was measured for 15 min and then blocked by the apical addition of 5 μM benzamil. After 20 min, 10 μM forskolin and 1 μM VX770 were added to both the apical and basolateral side to stimulate CFTR. An increase in chloride current is seen as an upward deflection of the trace. After another 30 min, CFTR-172 (a CFTR inhibitor, 2 μM) and/or bumetanide (20 μM) was added to block CFTR mediated chloride current.
The raw data, current vs. time for the Ussing chamber (sampling interval: 10 s) and voltage vs. time and resistance vs. time for the equivalent current assay (sampling interval: 5 minutes) were transferred to Excel (Microsoft Office Professional, version 14.0.7106.5003) for analysis. CFTR specific current was measured as the average amplitude of the increase in current elicited upon addition forskolin and ending upon addition of the CFTR channel specific blocker CFTR-172. This average is equivalent to the sum of the average forskolin activated and the average VX770-potentiated currents. The average current measured in vehicle (0.1% DMSO) treated cells, Iv, was subtracted from the current for the test article, ITA, or from the corrector reference standard VX809 (3 μM ISTD. For replicate measurements, the average vehicle subtracted response for the test article, was normalized to the average vehicle subtracted […] response of the reference corrector VX809 (3 μM). INSC=(ITA−IV)(ave)/(ISTD−IV)(ave) (Equation 1)
A second endpoint, for the equivalent current assay, evaluated was NAUC, the normalized area under the curve (AUC) measuring the response after addition of forskolin and VX770 to the time point right before the addition of the CFTR inhibitor. The AUC is effectively the average response multiplied by the duration of the response. The AUC of the test article, AUCTA was then corrected by subtracting the average vehicle response, AUCV,ave over the same time range, and normalized as for the inhibitor-sensitive current to the difference of the corrector reference standard VX809 (3 μM VX809r,ave and the vehicle response: NAUCTA=[AUCTA−AUCV,ave]/[AUCVx809r,ave−AUCV,ave](Equation 2).
The normalized value for DMSO is 0.0 and for VX-809 alone is 1.0. Combinations of compounds with VX-809 that give normalized values greater than 1.0 show activity in the combination assay. A value of 2 means the test compound doubles the effect to VX-809 alone.
Experiments were run with a minimum of n=4 replicates per concentration. […]

Row | Compound | NAUC (normalized area under the curve), Test Conc 3 uM | NAUC (normalized area under the curve), Test Conc 10 uM
1 | CN1CCN(C(=O)CCNC(=O)c2cc(-c3ccc(F)cc3)on2)CC1 [Example 1, 5-(4-fluorophenyl)-N-(3-(4-methylpiperazin-1-yl)-3-oxopropyl)isoxazole-3-carboxamide] | ++ (NAUC “++” refers to an observed NAUC 170-140% of positive control) | +++ (NAUC “+++” refers to an observed NAUC >170% of positive control)
2 | O=C(NCCC(=O)N1CCCC1)c1cc(-c2ccc(F)cc2)on1 [Example 2] | ++ (NAUC “++” refers to an observed NAUC 170-140% of positive control) | +++ (NAUC “+++” refers to an observed NAUC >170% of positive control)
3 | CCN(CC)C(=O)CCNC(=O)c1cc(-c2ccc(F)cc2)on1 [Example 3] | ++ (NAUC “++” refers to an observed NAUC 170-140% of positive control) | +++ (NAUC “+++” refers to an observed NAUC >170% of positive control)
4 | O=C(NCCC(=O)N1CCCCC1)c1cc(-c2ccc(F)cc2)on1 [Example 4] | ++ (NAUC “++” refers to an observed NAUC 170-140% of positive control) | +++ (NAUC “+++” refers to an observed NAUC >170% of positive control)
5 | O=C(CCNC(=O)c1cc(-c2ccc(F)cc2)on1)NCC1CC1 [Example 6] | ++ (NAUC “++” refers to an observed NAUC 170-140% of positive control) | +++ (NAUC “+++” refers to an observed NAUC >170% of positive control)
6 | O=C(NCCC(=O)N1CCC1)c1cc(-c2ccc(F)cc2)on1 [Example 8] | +++ (NAUC “+++” refers to an observed NAUC >170% of positive control) | +++ (NAUC “+++” refers to an observed NAUC >170% of positive control)
7 | O=C(NCCC(=O)N1CCOCC1)c1cc(-c2ccc(F)cc2)on1 [Example 10] | ++ (NAUC “++” refers to an observed NAUC 170-140% of positive control) | +++ (NAUC “+++” refers to an observed NAUC >170% of positive control)
8 | O=C(CCNC(=O)c1cc(-c2ccc(F)cc2)on1)Nc1ccccn1 [Example 13] | + (NAUC “+” refers to an observed NAUC <140% of positive control) | ++ (NAUC “++” refers to an observed NAUC 170-140% of positive control)
9 | CN1CCN(C(=O)CCCNC(=O)c2cc(-c3ccc(F)cc3)on2)CC1 [Example 14, 5-(4-fluorophenyl)-N-(4-(4-methylpiperazin-1-yl)-4-oxobutyl)isoxazole-3-carboxamide] | +++ (NAUC “+++” refers to an observed NAUC >170% of positive control) | +++ (NAUC “+++” refers to an observed NAUC >170% of positive control)
10 | CN1CCN(C(=O)CCCCNC(=O)c2cc(-c3ccc(F)cc3)on2)CC1 [Example 15, 5-(4-fluorophenyl)-N-(5-(4-methylpiperazin-1-yl)-5-oxopentyl)isoxazole-3-carboxamide] | +++ (NAUC “+++” refers to an observed NAUC >170% of positive control) | +++ (NAUC “+++” refers to an observed NAUC >170% of positive control)
11 | O=C(NCCCCC(=O)N1CCC1)c1cc(-c2ccc(F)cc2)on1 [Example 16, N-(5-(azetidin-1-yl)-5-oxopentyl)-5-(4-fluorophenyl)isoxazole-3-carboxamide] | +++ (NAUC “+++” refers to an observed NAUC >170% of positive control) | +++ (NAUC “+++” refers to an observed NAUC >170% of positive control)
12 | O=C(NCCc1ccccc1)c1cc(-c2ccc(F)cc2)on1 [Example 17, 5-(4-fluorophenyl)-N-phenethylisoxazole-3-carboxamide] | + (NAUC “+” refers to an observed NAUC <140% of positive control) | ++ (NAUC “++” refers to an observed NAUC 170-140% of positive control)
13 | NS(=O)(=O)c1ccc(CNC(=O)c2cc(-c3ccc(F)cc3)on2)cc1 [Example 18] | ++ (NAUC “++” refers to an observed NAUC 170-140% of positive control) | ++ (NAUC “++” refers to an observed NAUC 170-140% of positive control)
14 | CC(C)Oc1ccc(CNC(=O)c2cc(-c3ccc(F)cc3)on2)cc1 [Example 19] | + (NAUC “+” refers to an observed NAUC <140% of positive control) | + (NAUC “+” refers to an observed NAUC <140% of positive control)
15 | CC(C)OCCNC(=O)c1cc(-c2ccc(F)cc2)on1 [Example 20] | + (NAUC “+” refers to an observed NAUC <140% of positive control) | ++ (NAUC “++” refers to an observed NAUC 170-140% of positive control)
16 | O=C(NC[C@@H]1CCCO1)c1cc(-c2ccc(F)cc2)on1 [Example 21] | + (NAUC “+” refers to an observed NAUC <140% of positive control) | ++ (NAUC “++” refers to an observed NAUC 170-140% of positive control)
17 | CC(C)CNC(=O)c1cc(-c2ccc(F)cc2)on1 [Example 22] | + (NAUC “+” refers to an observed NAUC <140% of positive control) | ++ (NAUC “++” refers to an observed NAUC 170-140% of positive control)
18 | O=C(NCc1cccnc1)c1cc(-c2ccc(F)cc2)on1 [Example 24] | ++ (NAUC “++” refers to an observed NAUC 170-140% of positive control) | ++ (NAUC “++” refers to an observed NAUC 170-140% of positive control)
19 | O=C(NCc1cccc(F)c1F)c1cc(-c2ccc(F)cc2)on1 [Example 25] | + (NAUC “+” refers to an observed NAUC <140% of positive control) | + (NAUC “+” refers to an observed NAUC <140% of positive control)
20 | CCNC(=O)c1cc(-c2ccc(F)cc2)on1 [Example 26] | +++ (NAUC “+++” refers to an observed NAUC >170% of positive control) | +++ (NAUC “+++” refers to an observed NAUC >170% of positive control)
21 | O=C(NCc1ccccc1)c1cc(-c2ccc(F)cc2)on1 [Example 27] | ++ (NAUC “++” refers to an observed NAUC 170-140% of positive control) | ++ (NAUC “++” refers to an observed NAUC 170-140% of positive control)
22 | N#Cc1ccc(CNC(=O)c2cc(-c3ccc(F)cc3)on2)cc1 [Example 28] | + (NAUC “+” refers to an observed NAUC <140% of positive control) | + (NAUC “+” refers to an observed NAUC <140% of positive control)
23 | O=C(NC1CCCC1)c1cc(-c2ccc(F)cc2)on1 [Example 29] | ++ (NAUC “++” refers to an observed NAUC 170-140% of positive control) | ++ (NAUC “++” refers to an observed NAUC 170-140% of positive control)
24 | O=C(NC[C@H]1CCCO1)c1cc(-c2ccc(F)cc2)on1 [Example 30] | ++ (NAUC “++” refers to an observed NAUC 170-140% of positive control) | ++ (NAUC “++” refers to an observed NAUC 170-140% of positive control)
25 | CC(C)CCNC(=O)c1cc(-c2ccc(F)cc2)on1 [Example 31] | ++ (NAUC “++” refers to an observed NAUC 170-140% of positive control) | ++ (NAUC “++” refers to an observed NAUC 170-140% of positive control)
